Data from PubChem BioAssay (NCI).
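Interpolation was linear, between the two tested concentrations surrounding the appropriate level; five concentrations were tested over 48 hours in 96-well plates. The concentration for full growth arrest is given as TGI.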

What was measured:
Assay in all cases: growth of human tumour cells (NCI), 48 h
A549 NSCLC = tested on: A549 NSCLC
EKVX NSCLC = tested on: EKVX NSCLC
HOP-92 NSCLC = tested on: HOP-92 NSCLC
K-562 leukemia = tested on: K-562 leukemia
MDA-MB-231 breast = tested on: MDA-MB-231 breast
NCI-H460 lung = tested on: NCI-H460 lung
RXF 393 renal = tested on: RXF 393 renal
SK-MEL-2 melanoma = tested on: SK-MEL-2 melanoma
NCI-H23 lung = tested on: NCI-H23 lung

SMILES	TGI (A549 NSCLC)	TGI (EKVX NSCLC)	TGI (HOP-92 NSCLC)	TGI (K-562 leukemia)	TGI (MDA-MB-231 breast)	TGI (NCI-H460 lung)	TGI (RXF 393 renal)	TGI (SK-MEL-2 melanoma)	TGI (NCI-H23 lung)
Cc1ccc(S(=O)(=O)NC(=O)NNc2ccc(F)cc2)cc1	> 100 µM	> 100 µM	> 100 µM	> 58.2 µM	> 100 µM	> 100 µM	> 100 µM	> 100 µM	–
Cc1c(C#N)c(N)n(C2OCC(O)C(O)C2O)c(=S)c1C#N (stereo not given)	> 100 µM	–	–	> 100 µM	> 100 µM	> 100 µM	> 100 µM	> 100 µM	> 100 µM
COc1cc(CNc2nc3cc(C(F)(F)F)ccc3nc2-c2ccccc2)cc(OC)c1OC	> 100 µM	50.2 µM	–	> 100 µM	67.5 µM	> 100 µM	51.7 µM	–	> 100 µM
O=C(CNCc1ccccc1)Oc1c(Cl)c(Cl)c(Cl)c(Cl)c1Cl	69.1 µM	48.7 µM	–	> 100 µM	69.1 µM	> 100 µM	> 100 µM	92 µM	> 100 µM
CCCCN(CCCC)C(=C(C(Cl)=C(Cl)Cl)[N+](=O)[O-])N(CCCC)CCCC	> 100 µM	> 100 µM	> 100 µM	4.69 µM	> 100 µM	> 100 µM	–	> 100 µM	> 100 µM
O=C1CC(Sc2nc3ccc(I)cc3c(=O)n2Cc2ccccc2)C(=O)NN1 (stereo not given)	89.4 µM	31.8 µM	37.2 µM	50.5 µM	29.3 µM	57.2 µM	–	31.8 µM	30.1 µM
COC(=O)C1=C(O)C(C(=O)OC)[C@@]2(O)[C@@H](C(=O)OC)[C@H](C)[C@@H](C)[C@@H]1[C@@H]2C(=O)OC (stereo not given in full)	–	> 100 µM	–	> 100 µM	> 100 µM	> 100 µM	72.3 µM	> 100 µM	> 100 µM
CCCOC(=O)NC(C)C(=O)NC(CCC(=O)NC(CCCC(N)C(=O)O)C(=O)NC(C)C(=O)O)C(=O)O (stereo not given)	> 100 µM	> 100 µM	77.4 µM	–	50.8 µM	> 100 µM	–	> 100 µM	> 100 µM
COc1cc2c(cc1OC)C13CC[N+]4(C)CC5=CCOC6CC(=O)N2C1C6C5CC34[O-] (stereo not given)	> 100 µM	> 100 µM	> 100 µM	> 100 µM	> 100 µM	> 100 µM	> 100 µM	–	> 100 µM
CC1(C)[C@@H](Cn2cnc3c(Cl)nc(N)nc32)CC[C@@]1(C)CO	> 100 µM	> 100 µM	> 100 µM	> 100 µM	> 100 µM	–	> 100 µM	35.1 µM	–
COP(=O)(OC)C12CCOCCN1c1ccccc1C2=O (stereo not given)	> 100 µM	> 100 µM	> 100 µM	–	> 100 µM	> 100 µM	–	> 100 µM	> 100 µM
COc1ccccc1N1CCN(CCCNC(=O)c2cc(Cl)c(N)c(Cl)c2)CC1	> 100 µM	> 100 µM	31.4 µM	–	> 100 µM	> 100 µM	91 µM	–	> 100 µM
CC(C)CCn1nc(N)c2nc3ccccc3nc21	> 100 µM	> 100 µM	> 100 µM	> 100 µM	–	> 100 µM	> 100 µM	> 100 µM	> 100 µM
N#Cc1c(C#N)c(-c2ccccc2)n(-c2ccccc2)c1N	> 100 µM	> 100 µM	–	> 100 µM	> 100 µM	–	> 100 µM	> 100 µM	> 100 µM
O=C1CS(=O)C23c4cc5ccccc5n4CCC2CCCN13 (stereo not given)	> 100 µM	> 100 µM	> 100 µM	> 100 µM	> 100 µM	–	> 100 µM	> 100 µM	> 100 µM
O=C1CCc2ccc3c(c21)CC1(Cc2ccccc2C1)C3	29.6 µM	–	45.9 µM	–	40.2 µM	20.6 µM	–	38.7 µM	> 100 µM
N#CC(=N)c1ncn(-c2ccccc2N)c1N	> 100 µM	> 100 µM	–	> 100 µM	> 100 µM	> 100 µM	–	> 100 µM	> 100 µM
COc1ccc(N=NC(=Nc2ccc(F)cc2)c2ccc(N(CCC#N)CCC#N)cc2)cc1	43.1 µM	> 100 µM	72.9 µM	> 100 µM	52.8 µM	52 µM	90 µM	–	65.6 µM
CN(C)P(=O)(Oc1occc1C(O)Cc1ccccc1)N(C)C (stereo not given)	> 100 µM	> 100 µM	–	–	> 100 µM	> 100 µM	> 100 µM	> 100 µM	> 100 µM
